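Tested at 5 concentrations; 48 h exposure; 96-well plates; endpoints linearly interpolated, else capped at highest concentration. The concentration for 50% growth inhibition is given as GI50.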 Active and inactive are the calls of the source. Cut-off read from the data, not from the text of the source: active = GI50 up to about 1.1 µM and inactive = higher.
Experiments:
Assay in all cases: NCI tumour cell line growth inhibition, 48 h
[1] = system: 786-0
[2] = system: A498
[3] = system: A549
[4] = system: ACHN
[5] = system: BT-549
[6] = system: CAKI-1
[7] = system: CCRF-CEM
[8] = system: COLO 205
[9] = system: DU-145
[10] = system: EKVX
[11] = system: HCC 2998
[12] = system: HCT-116
[13] = system: HCT-15
[14] = system: HL-60
[15] = system: HOP-62
[16] = system: HT-29
[17] = system: Hs-578T
[18] = system: IGROV-1
[19] = system: K562
[20] = system: KM12
[21] = system: LOX IMVI
[22] = system: M14
[23] = system: MCF7
[24] = system: MDA-MB-231
[25] = system: MDA-MB-435
[26] = system: MDA-N
[27] = system: MOLT-4
[28] = system: Malme-3M
[29] = system: NCI-H226
[30] = system: NCI-H23
[31] = system: NCI-H460
[32] = system: NCI-H522
[33] = system: OVCAR-8
[34] = system: PC-3
[35] = system: RPMI-8226
[36] = system: SF-268
[37] = system: SF-295
[38] = system: SF-539
[39] = system: SK-MEL-28
[40] = system: SK-MEL-5
[41] = system: SK-OV-3
[42] = system: SN12C
[43] = system: SNB-19
[44] = system: SNB-75
[45] = system: SR
[46] = system: SW-620
[47] = system: T47D
[48] = system: TK-10
[49] = system: UACC-257
[50] = system: UACC-62
[51] = system: UO-31
[52] = system: HOP-92
[53] = system: OVCAR-3
[54] = system: OVCAR-4
[55] = system: OVCAR-5
[56] = system: RXF 393
[57] = system: SK-MEL-2
[58] = system: U-251

Measured: GI50

C=CCOCn1cc(C)c(=O)[nH]c1=O
inactive: [1] > 100 µM | [2] > 100 µM | [3] > 100 µM | [4] > 100 µM | [5] > 100 µM | [6] > 100 µM | [7] > 100 µM | [8] > 100 µM | [9] > 100 µM | [10] > 100 µM | [11] > 100 µM | [12] > 100 µM | [14] > 100 µM | [15] > 100 µM | [16] > 100 µM | [17] > 100 µM | [18] > 100 µM | [19] > 100 µM | [20] > 100 µM | [21] > 100 µM | [22] > 100 µM | [23] > 100 µM | [24] > 100 µM | [25] > 100 µM | [26] > 100 µM | [27] > 100 µM | [28] > 100 µM | [29] > 100 µM | [30] > 100 µM | [31] > 100 µM | [32] 29.6 µM | [33] > 100 µM | [34] > 100 µM | [35] > 100 µM | [36] > 100 µM | [37] > 100 µM | [38] > 100 µM | [39] > 100 µM | [40] > 100 µM | [41] > 100 µM | [42] > 100 µM | [43] > 100 µM | [44] > 100 µM | [45] > 100 µM | [46] > 100 µM | [47] > 100 µM | [48] > 100 µM | [49] > 100 µM | [50] > 100 µM | [51] > 100 µM
> 100 µM: [13]

CC(=O)OCCCOCn1c(Cc2ccccc2)c(C)c(=O)[nH]c1=O
> 100 µM: [13]
inactive: [1] > 100 µM | [2] > 100 µM | [3] > 100 µM | [4] > 100 µM | [5] > 100 µM | [6] > 100 µM | [7] > 100 µM | [8] > 100 µM | [9] > 100 µM | [10] > 100 µM | [11] > 100 µM | [12] > 100 µM | [15] > 100 µM | [52] > 100 µM | [16] > 100 µM | [17] > 100 µM | [18] > 100 µM | [19] > 100 µM | [20] > 100 µM | [21] > 100 µM | [22] > 100 µM | [23] > 100 µM | [24] > 100 µM | [25] > 100 µM | [26] > 100 µM | [27] > 100 µM | [28] > 100 µM | [29] > 100 µM | [30] > 100 µM | [31] > 100 µM | [32] > 100 µM | [53] > 100 µM | [54] > 100 µM | [55] > 100 µM | [33] > 100 µM | [34] > 100 µM | [35] > 100 µM | [56] > 100 µM | [36] > 100 µM | [37] > 100 µM | [38] > 100 µM | [39] > 100 µM | [57] > 100 µM | [40] > 100 µM | [41] > 100 µM | [42] > 100 µM | [43] > 100 µM | [44] > 100 µM | [45] > 100 µM | [46] > 100 µM | [47] > 100 µM | [48] > 100 µM | [58] > 100 µM | [49] > 100 µM | [50] > 100 µM | [51] > 100 µM
